How the values were obtained:
[1] = Pharmacokinetic study in mice, i.p. injection; format: in vivo; details: C57BL/6, mouse, ip, 48 mg kg^−1 i.p., plasma, mean ± S.D., n = 3
Procedure: Pharmacokinetic analyses were performed using a LC‐40D XS HPLC system (Shimadzu, Japan) coupled with a Sciex Triple Quad 5500 mass spectrometer (AB SCIEX, USA). Tested compounds PB3 and 6c were administered by i.p. injection (48 mg kg^−1, formulation solvent: normal saline). Blood samples were drawn from the retro‐orbital vein at 0.083, 0.25, 0.5, 1, 2, 4, 8, and 24 h post‐injection with EDTA dipotassium salt as an anticoagulant. Subsequently, the plasma fractions were collected in Eppendorf tubes and centrifuged at 4000 g for 5 min at 4 °C and stored at −80 °C for analysis. Brain tissue was mixed with four‐fold normal saline for homogenization (10 s per time with a 10 s interval for 3–5 times). Then, the mixture was centrifuged at 4000 g for 5 min at 4 °C, and the supernatant was stored at −80 °C for analysis. For sample preparation, the desired serial concentrations of working solutions were achieved by diluting a stock solution of analyte with 50% methanol in water solution. 2 µL of working solutions were added to 10 µL of the blank C57BL/6 mouse plasma/brain homogenate to achieve calibration standards of 10–10 000 ng mL^−1 (10, 20, 100, 200, 1000, 2000, 4000, 10 000 ng mL^−1) in a total volume of 12 µL. Three quality control samples at 20 ng mL^−1, 1600 ng mL^−1, and 8000 ng mL^−1 for plasma were prepared independently of those used for the calibration curves. These QC samples were prepared on the day of analysis in the same way as calibration standards.

G3BP1 = molecular target: T1, G3BP1 (Mus musculus, UniProt P97855); assay: Cellular thermal shift assay; format: binding; details: HT22 cell lysate
T1 construct: endogenous in cells; host or cells: HT22 cell lysate
Procedure: HT22 cells were grown to 90% confluency and harvested by trypsin and resuspended in 1 mL PBS. The samples were subjected to three freeze–thaw cycles in liquid nitrogen. Each cell lysate was centrifuged (12000 g for 30 min at 4 °C), and the supernatant was collected. The supernatants were treated with PB3 (or PBS control) for 20 min. Subsequently, they were aliquoted into Eppendorf tubes and heated for 3 min to 44, 48, 52, 56, or 60 °C. The soluble fractions were analyzed by SDS‐polyacrylamide gel electrophoresis and immunoblotted with anti‐G3BP1 antibody.

[2] = system: eIF2α phosphatases (GADD34 and PPP1R15B/CReP) and eIF2α kinases (PERK and GCN2); assay: RT-qPCR of key factors regulating SG dynamics; format: cell-based; details: 50 µM, 6 h of reperfusion following OGD, HT22 cells
Procedure: (§1) Total RNA from HT22 cells was extracted with Trizol. The concentration and purity of RNA were determined by Nanodrop (Thermo Scientific, USA), and RNA was reverse transcribed by PrimeScript Reverse Transcription Master Mix (TaKaRa, Japan). Then RT‐qPCR was performed using Hieff qPCR SYBR Green Master Mix (Yeasen, China). The expression level of the transcripts was normalized to the constitutive expression level of β‐actin. The primers used for amplification are listed in Table S4 (Supporting Information).

G3BP1‐bound mRNA = assay: RIP assay with RT-qPCR of G3BP1-bound mRNAs; format: cell-based; details: 50 µM, 6 h of reperfusion following OGD
Procedure: as §1
RIP assay was performed with the BeyoRIP RIP Assay Kit (Beyotime, China) using the manufacturer's protocol. HT22 cells were washed with PBS and centrifuged, then the cell was resuspended in complete lysis buffer. 3–5 µg antibody was pre‐bound to protein A/G agarose beads in NT2 wash buffer for 0.5 h and then incubated with 270 µL cell lysates for 4 h at 4 °C with rotation, and RNA was eluted from the beads by incubating with 100 µL elution buffer for 0.5 h at 55 °C. The eluted RNA was dissolved with RNase‐free water. Enrichment of certain fragments was determined by RT‐qPCR.

bEnd.3 cells = assay: In vitro BBB model, Transwell transport apical-to-basolateral; format: in vitro ADME; details: 100 µM, apical-to-basolateral, 30, 60, and 120 min
Procedure: The Transwell filters (0.4 µm pore) were used to evaluate the crossing capacity of the BBB of selected compounds. The basolateral side of the wells was filled by DMEM (Gibco, USA) with 10% FBS. Then, bEnd.3 cells were seeded on the apical side of the semi‐permeable filter in a humidified atmosphere. The culture medium was changed on alternate days. To verify if the cell monolayer formed junctions, the resistance was daily monitored by determining the trans‐endothelial electrical resistance. The resistance value of an empty filter was subtracted from each measurement. After reaching the confluence, bEnd.3 monolayer cells were washed three times with PBS, and the basolateral compartment was filled with Hanks' Balanced Salt Solution (HBSS). The permeability experiments across the cell monolayer were performed in the apical‐to‐basolateral direction. Transport experiments were assessed by placing the compounds, prepared in HBSS, on the upper side of the monolayers (100 µM/300 µL). At different time points (30, 60, and 120 min), 500 µL samples were taken from the basolateral side, and to replace the withdrawn volume, the same volume of preheated HBSS was added. The amount of cellular drug uptake was measured using a Waters e2695 system (Waters, USA).

tMCAO mice = assay: Long-term neurological recovery after tMCAO; format: in vivo; details: 48 mg/kg daily, i.p.
Procedure: The modified neurological severity score was applied according to the previous report.^[ [63] ^] The range of the neurological function score extends from 0 to 18 points. A higher score represents more severe neurological deficits. In the rotarod test, according to the previous report,^[ [64] ^] mice were tested under the accelerating rotor mode with acceleration from 5 to 20 rpm. The final score for statistical analysis was expressed as the mean time that mice could remain on the rod.

T1 sequence (P97855 whole entry): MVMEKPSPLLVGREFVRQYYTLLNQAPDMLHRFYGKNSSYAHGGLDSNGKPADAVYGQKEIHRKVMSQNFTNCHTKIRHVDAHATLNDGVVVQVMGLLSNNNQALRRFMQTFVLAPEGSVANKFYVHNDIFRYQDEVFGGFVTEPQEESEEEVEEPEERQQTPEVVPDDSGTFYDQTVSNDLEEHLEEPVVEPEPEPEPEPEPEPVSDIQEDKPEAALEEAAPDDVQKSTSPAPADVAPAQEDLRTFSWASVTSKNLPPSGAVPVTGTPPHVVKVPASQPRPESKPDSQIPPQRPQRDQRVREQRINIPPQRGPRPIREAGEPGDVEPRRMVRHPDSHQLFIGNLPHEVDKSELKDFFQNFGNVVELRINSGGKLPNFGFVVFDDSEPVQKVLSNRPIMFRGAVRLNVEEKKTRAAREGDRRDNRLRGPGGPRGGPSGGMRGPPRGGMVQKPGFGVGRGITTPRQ

SMILES	AUC(0-inf) [1]	AUC(0-t) [1]	Cmax [1]	MRT inf [1]	half-life [1]	thermal stability of G3BP1 (G3BP1)	expression of eIF2α phosphatases (GADD34 and PPP1R15B/CReP) [2]	expression of two eIF2α kinases (PERK and GCN2) [2]	level of G3BP1‐bound mRNA (G3BP1‐bound mRNA)	transport efficiency (bEnd.3 cells)	body weight (tMCAO mice)	modified neurological severity scores (tMCAO mice)	rotarod test (tMCAO mice; at the end of treatment)
Oc1cc(O)c2c(c1)O[C@H](c1ccc(O)c(O)c1)[C@@H](O)[C@@H]2c1c(O)cc(O)c2c1O[C@H](c1ccc(O)c(O)c1)[C@@H](O)C2 [Compound 1, procyanidin B3]	22300 ± 1970 ng·h/mL	22200 ± 1940 ng·h/mL	30400 ± 1790 ng/mL	1.42 ± 0.06 h	4.43 ± 0.34 h	enhanced the thermal stability of G3BP1	significantly lower	significantly higher	higher				
CC(C)c1c(O)cc(O)c2c1O[C@H](c1ccc(O)c(O)c1)[C@@H](O)[C@@H]2c1c(O)cc(O)c2c1O[C@H](c1ccc(O)c(O)c1)[C@@H](O)C2 [Compound 6c, 8‐Isopropyl‐(+)‐Catechin‐(4α,8)‐(+)‐Catechin]	10400 ± 1280 ng·h/mL	10200 ± 1250 ng·h/mL	25200 ± 2500 ng/mL	0.76 ± 0.03 h	2.01 ± 0.26 h					better than that of 1	mitigated the tendency toward weight loss	lower scores than the tMCAO group	showed improvements compared with the tMCAO group

Reference: article PMC12677652, “Procyanidin B3 and Its Derivatives Alleviate Neuronal Injury by Targeting G3BP1 for Ischemic Stroke Therapy” (Advanced Science, 2025)
